Patent publication US20230065740A1, “CYCLIN-DEPENDENT KINASE INHIBITORS” (SPV THERAPEUTICS INC., priority 2018, published 2023)
Where two headings read alike, the source gives them in different places.

Assays:
[1] = target: T1, CDK6-CYCLIND3 (Homo sapiens, UniProt Q00534); experiment: Microfluidic LabChip kinase inhibition assay, CDK6-CyclinD3; type: biochemical; conditions: 300 μM ATP
T1 construct: purchased Carna

[2] = target: CDK4-CYCLIND1 (Homo sapiens, UniProt P11802); experiment: Microfluidic LabChip kinase inhibition assay, CDK4-CyclinD1; conditions: 200 μM ATP
Method: Inhibition assays were performed using microfluidic LabChip 300 Drug Discovery System from Caliper Life Sciences. […] The assay has a total volume of 10 μL consisting of 5 μL of enzyme and buffer and 5 μL of substrate and buffer. The test compounds were diluted in 100% dimethylsulfoxide (DMSO) using 3-fold dilution steps. […] Compounds were tested in a single well for each dilution and the final concentration of DMSO was maintained at 1%.
The assay buffer contained 100 mM HEPES, pH 7.5, 0.01% Triton X-100, 0.1% bovine serum albumin (BSA), 5 mM MgCl2; 1 mM dithiothreitol (DTT), 10 μM sodium orthovanadate, and 10 μM β-glycerophosphate.
The assay was conducted by adding 5 μL of enzyme, adenosine triphosphate (ATP) and buffer to an assay plate. A 100 nL aliquot of the diluted compounds were added to the plate. The assay was initiated by the addition of 5 μL of phosphoenolpyruvate substrate (PEP) in buffer. […] The reaction was terminated by the addition of EDTA. The plates were analyzed using a Caliper LabChip 3000.

[3] = Table 3a, read-out: CDK6 CyclinD3 IC50
[4] = Table 3b, read-out: CDK6 CyclinD3 IC50
[5] = CDK4 CyclinD1 IC50 (μM), Table 3a, second value in parentheses on the next line
[6] = CDK4 CyclinD1 IC50 (μM), Table 3b, second value in parentheses on the next line
[7] = Table 2, 2 nM enzyme, read-out: CDK6 IC50
[8] = CDK4 IC50 (μM), Table 2, 1 nM enzyme

Sequence of CDK4-CYCLIND1 (P11802 whole entry): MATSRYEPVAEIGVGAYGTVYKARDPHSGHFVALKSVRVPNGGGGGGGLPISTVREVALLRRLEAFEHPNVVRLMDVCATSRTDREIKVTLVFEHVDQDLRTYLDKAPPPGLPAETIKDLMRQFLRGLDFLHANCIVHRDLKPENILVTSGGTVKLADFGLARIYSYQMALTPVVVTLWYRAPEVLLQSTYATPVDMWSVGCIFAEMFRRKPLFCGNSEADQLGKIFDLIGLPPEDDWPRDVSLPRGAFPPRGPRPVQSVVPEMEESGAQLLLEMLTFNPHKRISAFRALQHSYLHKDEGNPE
Sequence of CDK4-CYCLIND1 (P24385 whole entry partner): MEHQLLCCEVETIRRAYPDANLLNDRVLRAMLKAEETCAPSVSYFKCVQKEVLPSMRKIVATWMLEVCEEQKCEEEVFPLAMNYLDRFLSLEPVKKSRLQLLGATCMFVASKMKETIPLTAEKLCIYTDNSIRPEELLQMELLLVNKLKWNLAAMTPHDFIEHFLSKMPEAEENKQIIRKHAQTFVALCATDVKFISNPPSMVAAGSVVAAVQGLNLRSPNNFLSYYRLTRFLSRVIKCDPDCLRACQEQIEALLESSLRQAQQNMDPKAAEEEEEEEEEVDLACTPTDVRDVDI
T1 sequence (Q00534 whole entry): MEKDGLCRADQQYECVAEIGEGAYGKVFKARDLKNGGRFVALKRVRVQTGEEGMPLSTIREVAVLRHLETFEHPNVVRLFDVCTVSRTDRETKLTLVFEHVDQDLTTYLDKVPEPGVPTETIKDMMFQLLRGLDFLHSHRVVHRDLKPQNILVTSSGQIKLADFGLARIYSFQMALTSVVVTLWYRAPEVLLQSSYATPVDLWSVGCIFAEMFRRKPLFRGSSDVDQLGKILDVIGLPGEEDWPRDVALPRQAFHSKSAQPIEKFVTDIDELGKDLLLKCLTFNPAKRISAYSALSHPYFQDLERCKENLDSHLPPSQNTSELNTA
T1 sequence (P30281 whole entry partner): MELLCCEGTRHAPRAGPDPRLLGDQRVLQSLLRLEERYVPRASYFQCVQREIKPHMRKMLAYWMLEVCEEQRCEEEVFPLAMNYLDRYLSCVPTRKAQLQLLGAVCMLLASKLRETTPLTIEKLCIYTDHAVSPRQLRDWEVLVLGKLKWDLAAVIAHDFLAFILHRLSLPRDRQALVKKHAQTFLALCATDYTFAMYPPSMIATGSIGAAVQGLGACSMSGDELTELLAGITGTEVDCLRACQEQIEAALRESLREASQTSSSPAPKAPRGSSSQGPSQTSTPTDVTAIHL

Structure (SMILES)	IC50 [1, 3]	IC50 [1, 4]	IC50 [2, 5]	IC50 [2, 6]	IC50 [1, 7]	IC50 [2, 8]
O=C1NCCC12Cc1cnc(Nc3ccc(N4CCNCC4)c(F)c3)nc1N2C1CCCC1 (single isomer, unassigned) [Compound C203, 7′-cyclopentyl-2′-((3-fluoro-4-(piperazin-1-yl)phenyl)amino)-5′,7′-dihydrospiro[pyrrolidine-3,6′-pyrrolo[2,3-d]pyrimidin]-2-one]	0.104 µM	0.104 µM	0.0245 µM	0.0245 µM	–	–
O=C1NCCC12Cc1cnc(Nc3ccc(N4CCNCC4)c(F)c3)nc1N2C1CCCC1 (single isomer, unassigned) [Compound C204, 7′-cyclopentyl-2′-((3-fluoro-4-(piperazin-1-yl)phenyl)amino)-5′,7′-dihydrospiro[pyrrolidine-3,6′-pyrrolo[2,3-d]pyrimidin]-2-one]	11.8 µM	11.8 µM	2.03 µM	2.03 µM	–	–
CN1CCN(c2ccc(Nc3ncc4c(n3)N(C3CCCC3)C3(CCNC3=O)C4)cc2F)CC1 (single isomer, unassigned) [Compound C205, 7′-cyclopentyl-2′-((3-fluoro-4-(4-methylpiperazin-1-yl)phenyl)amino)-5′,7′-dihydrospiro[pyrrolidine-3,6′-pyrrolo[2,3-d]pyrimidin]-2-one]	0.179 µM	0.179 µM	0.0413 µM	0.0413 µM	–	–
CN1CCN(c2ccc(Nc3ncc4c(n3)N(C3CCCC3)C3(CCNC3=O)C4)cc2F)CC1 (single isomer, unassigned) [Compound C206, 7′-cyclopentyl-2′-((3-fluoro-4-(4-methylpiperazin-1-yl)phenyl)amino)-5′,7′-dihydrospiro[pyrrolidine-3,6′-pyrrolo[2,3-d]pyrimidin]-2-one]	15.8 µM	15.8 µM	5.14 µM	5.14 µM	–	–
CN1CCN(c2ccc(Nc3ncc4c(n3)N(C3CCCC3)C3(CCN(C)C3=O)C4)cc2)CC1 (stereo not shown) [Compound C1, 7′-cyclopentyl-1-methyl-2′-((4-(4-methylpiperazin-1-yl)phenyl)amino)-5′,7′-dihydrospiro[pyrrolidine-3,6′-pyrrolo[2,3-d]pyrimidin]-2-one]	–	–	–	–	19.1 µM	4.74 µM
CN1CCC2(Cc3cnc(Nc4ccc(N5CCNCC5)cc4)nc3N2C2CCCC2)C1=O (stereo not shown) [Compound C2, 7′-cyclopentyl-1-methyl-2′-((4-(piperazin-1-yl)phenyl)amino)-5′,7′-dihydrospiro[pyrrolidine-3,6′-pyrrolo[2,3-d]pyrimidin]-2-one]	–	–	–	–	23.8 µM	5.16 µM
CC(C)N1CCN(c2ccc(Nc3ncc4c(n3)N(C3CCCC3)C3(CCN(C)C3=O)C4)nc2)CC1 (stereo not shown) [Compound C3, 7′-cyclopentyl-2′-((5-(4-isopropylpiperazin-1-yl)pyridin-2-yl)amino)-1-methyl-5′,7′-dihydrospiro[pyrrolidine-3,6′-pyrrolo[2,3-d]pyrimidin]-2-one]	–	–	–	–	> 30 µM	> 30 µM
CN(C)CCOc1ccc(Nc2ncc3c(n2)N(C2CCCC2)C2(CCN(C)C2=O)C3)nc1 (stereo not shown) [Compound C4, 7′-cyclopentyl-2′-((5-(2-(dimethylamino)ethoxy)pyridin-2-yl)amino)-1-methyl-5′,7′-dihydrospiro[pyrrolidine-3,6′-pyrrolo[2,3-d]pyrimidin]-2-one]	–	–	–	–	> 30 µM	> 30 µM
CN1CCC2(Cc3cnc(Nc4ccc(OCCN5CCCC5)cn4)nc3N2C2CCCC2)C1=O (stereo not shown) [Compound C5, 7′-cyclopentyl-1-methyl-2′-((5-(2-(pyrrolidin-1-yl)ethoxy)pyridin-2-yl)amino)-5′,7′-dihydrospiro[pyrrolidine-3,6′-pyrrolo[2,3-d]pyrimidin]-2-one]	–	–	–	–	> 30 µM	> 30 µM
CN1CCC2(Cc3cnc(Nc4ccc(OCCN5CCCCC5)cn4)nc3N2C2CCCC2)C1=O (stereo not shown) [Compound C6, 7′-cyclopentyl 1-methyl-2′-((5-(2-(piperidin-1-yl)ethoxy)pyridin-2-yl)amino)-5′,7′-dihydrospiro[pyrrolidine-3,6′-pyrrolo[2,3-d]pyrimidin]-2-one]	–	–	–	–	> 30 µM	> 30 µM
CN1CCN(c2ccc(Nc3ncc4c(n3)N(C3CCCC3)C3(CCCN(C)C3=O)C4)cc2)CC1 (stereo not shown) [Compound C7, 7′-cyclopentyl-1-methyl-2′-((4-(4-methylpiperazin-1-yl)phenyl)amino)-5′,7′-dihydrospiro[piperidine-3,6′-pyrrolo[2,3-d]pyrimidin]-2-one]	–	–	–	–	> 30 µM	> 30 µM
CN1CCCC2(Cc3cnc(Nc4ccc(N5CCNCC5)cc4)nc3N2C2CCCC2)C1=O (stereo not shown) [Compound C8, 7′-cyclopentyl-1-methyl-2′-((4-(piperazin-1-yl)phenyl)amino)-5′,7′-dihydrospiro[piperidine-3,6′-pyrrolo[2,3-d]pyrimidin]-2-one]	–	–	–	–	> 30 µM	> 30 µM
CC(C)N1CCN(c2ccc(Nc3ncc4c(n3)N(C3CCCC3)C3(CCCN(C)C3=O)C4)nc2)CC1 (stereo not shown) [Compound C9, 7′-cyclopentyl-2′-((5-(4-isopropylpiperazin-1-yl)pyridin-2-yl)amino)-1-methyl-5′,7′-dihydrospiro[piperidine-3,6′-pyrrolo[2,3-d]pyrimidin]-2-one]	–	–	–	–	> 30 µM	> 30 µM
CN1CCCC2(Cc3cnc(Nc4ccc(OCCN5CCCC5)cn4)nc3N2C2CCCC2)C1=O (stereo not shown) [Compound C10, 7′-cyclopentyl-1-methyl-2′-((5-(2-(pyrrolidin-1-yl)ethoxy)pyridin-2-yl)amino)-5′,7′-dihydrospiro[piperidine-3,6′-pyrrolo[2,3-d]pyrimidin]-2-one]	–	–	–	–	> 30 µM	> 30 µM
CN1CCCC2(Cc3cnc(Nc4ccc(OCCN5CCCCC5)cn4)nc3N2C2CCCC2)C1=O (stereo not shown) [Compound C11, 7′-cyclopentyl-1-methyl-2′-((5-(2-(piperidin-1-yl)ethoxy)pyridin-2-yl)amino)-5′,7′-dihydrospiro[piperidine-3,6′-pyrrolo[2,3-d]pyrimidin]-2-one]	–	–	–	–	> 30 µM	> 30 µM
COc1ccc(CN2CCC3(Cc4cnc(Nc5ccc(N6CCN(C)CC6)cc5)nc4N3C3CCCC3)C2=O)cc1 (stereo not shown) [Compound C12, 7′-cyclopentyl-1-(4-methoxybenzyl)-2′-((4-(4-methylpiperazin-1-yl)phenyl)amino)-5′,7′-dihydrospiro[pyrrolidine-3,6′-pyrrolo[2,3-d]pyrimidin]-2-one]	–	–	–	–	> 30 µM	1.96 µM
CN1CCN(c2cnc(Nc3ncc4c(n3)N(C3CCCC3)C3(CCN(C)C3=O)C4)cc2C(F)(F)F)CC1 (stereo not shown) [Compound C13, 7′-cyclopentyl-1-methyl-2′-((5-(4-methylpiperazin-1-yl)-4-(trifluoromethyl)pyridin-2-yl)amino)-5′,7′-dihydrospiro[pyrrolidine-3,6′-pyrrolo[2,3-d]pyrimidin]-2-one]	–	–	–	–	> 30 µM	> 30 µM
CN1CCCC2(Cc3cnc(Nc4cc(C(F)(F)F)c(N5CCNCC5)cn4)nc3N2C2CCCC2)C1=O (stereo not shown) [Compound C14, 7′-cyclopentyl-1-methyl-2′-((5-(piperazin-1-yl)-4-(trifluoromethyl)pyridin-2-yl)amino)-5′,7′-dihydrospiro[piperidine-3,6′-pyrrolo[2,3-d]pyrimidin]-2-one]	–	–	–	–	> 30 µM	> 30 µM
CN1CCC2(Cc3cnc(Nc4cc(C(F)(F)F)c(N5CCNCC5)cn4)nc3N2C2CCCC2)C1=O (stereo not shown) [Compound C15, 7′-cyclopentyl-1-methyl-2′-((5-(piperazin-1-yl)-4-(trifluoromethyl)pyridin-2-yl)amino)-5′,7′-dihydrospiro[pyrrolidine-3,6′-pyrrolo[2,3-d]pyrimidin]-2-one]	–	–	–	–	> 30 µM	> 30 µM
COc1ccc(CN2CCC3(Cc4cnc(Nc5cc(C(F)(F)F)c(N6CCNCC6)cn5)nc4N3C3CCCC3)C2=O)cc1 (stereo not shown) [Compound C16, 7′-cyclopentyl-1-(4-methoxybenzyl)-2′-((5-(piperazin-1-yl)-4-(trifluoromethyl)pyridin-2-yl)amino)-5′,7′-dihydrospiro[pyrrolidine-3,6′-pyrrolo[2,3-d]pyrimidin]-2-one]	–	–	–	–	> 30 µM	13.1 µM
O=C1NCCC12Cc1cnc(Nc3cc(C(F)(F)F)c(N4CCNCC4)cn3)nc1N2C1CCCC1 (stereo not shown) [Compound C17, 7′-cyclopentyl-2′-((5-(piperazin-1-yl)-4-(trifluoromethyl)pyridin-2-yl)amino)-5′,7′-dihydrospiro[pyrrolidine-3,6′-pyrrolo[2,3-d]pyrimidin]-2-one]	–	–	–	–	> 30 µM	18.8 µM
CN1CCN(c2cnc(Nc3ncc4c(n3)N(C3CCCC3)C3(CCNC3=O)C4)cc2C(F)(F)F)CC1 (stereo not shown) [Compound C18, 7′-cyclopentyl-2′-((5-(4-methylpiperazin-1-yl)-4-(trifluoromethyl)pyridin-2-yl)amino)-5′,7′-dihydrospiro[pyrrolidine-3,6′-pyrrolo[2,3-d]pyrimidin]-2-one]	–	–	–	–	> 30 µM	> 30 µM
CN1CCN(c2ccc(Nc3ncc4c(n3)N(C3CCCC3)CC43CCNC3=O)nc2)CC1 (stereo not shown) [Compound C98, 7′-cyclopentyl-2′-((5-(4-methylpiperazin-1-yl)pyridin-2-yl)amino)-6′,7′-dihydrospiro[pyrrolidine-3,5′-pyrrolo[2,3-d]pyrimidin]-2-one]	–	–	–	–	–	57.6 µM
O=C1NCCC12C(=O)N(C1CCCC1)c1nc(Nc3ccc(N4CCNCC4)cn3)ncc12 (stereo not shown) [Compound C99, 7′-cyclopentyl-2′-((5-(piperazin-1-yl)pyridin-2-yl)amino)spiro[pyrrolidine-3,5′-pyrrolo[2,3-d]pyrimidine]-2,6′(7′H)-dione]	–	–	–	–	–	59.4 µM
CC(C)N1CCN(c2ccc(Nc3ncc4c(n3)N(C3CCCC3)C(=O)C43CCNC3=O)cc2F)CC1 (stereo not shown) [Compound C104, 7′-cyclopentyl-2′-((3-fluoro-4-(4-isopropylpiperazin-1-yl)phenyl)amino)spiro[pyrrolidine-3,5′-pyrrolo[2,3-d]pyrimidine]-2,6′(7′H)-dione]	–	–	–	–	–	51 µM
